According to patent US9433595B2, “Phytoestrogenic compositions for preventing or treating symptoms associated with menopause” (Natural Endotech Co., Ltd., priority 2008, dated 2016):

Tested on: SaOS-2 cells
Experiment: Estrogen-specific ALP (alkaline phosphatase) induction in SaOS-2 osteoblast cells
Type: cell-based
Conditions: conclusion drawn from ALP induction in SaOS-2 cells
Experimental: To verify the effect of the compound of the present invention, non-reproductive tract target tissue response was carried out for measuring estrogenecity. […]
In this regard, the estrogenic activity of the compounds of the experimental groups as described above in the Example 1 was analyzed using SaOS-2 cells in this study.
For experiments, SaOS-2 cell line was purchased from Korean Type Culture Collection (KTCC). […] Thereafter, 50 μl of cell lysis buffer (100 mM Tris, 100 mM NaCl, 1 mM EDTA) was added to the culture media of each well and then, 150 μl of 30 mM p-nitrophenyl phosphate (Merk, Germany) was thoroughly mixed with shaking, followed by measuring the absorbance at 405 nm for 10 min at an interval of 50 sec. ALP induction was calculated as follows: % induction=[(Slopesample)/(Slope17β-estradiol)]×100. […]

| SMILES | estrogenic activity |
| --- | --- |
| O=C(O)/C=C/c1ccccc1 [cinnamic acid] | remarkable estrogenic activity |
| COC(=O)C1=CO[C@@H](O[C@H]2O[C@@H](CO)[C@H](O)[C@@H](O)[C@@H]2O)C2C1[C@H](O)C[C@]2(C)O (some centres unmarked) [shanzhiside methylester] | remarkable estrogenic activity |
